Data published in article PMC9782603 (Viruses, 2022).
Values after ≈ are worked out from the molar mass of the structure shown. Like-named read-outs stand apart in the source and are kept apart here.

Columns and labels:
[1] = tested on: HCV GT 1b subgenomic reporter replicon (strain Con1); test: HCV GT 1b subgenomic replicon luciferase antiviral assay in Huh5-2 cells; format: cell-based; conditions: Huh5-2, GT 1b (Con1), F-Luc, 3 days, read-out: EC50 HCV Replicon 1b
[2] = Water solubility by HPLC-UV after 24 h agitation; format: physicochemical; conditions: thermodynamic from solid, deionized water, ambient temperature
[3] = alamarBlue reduction cytotoxicity assay in replicon cells; format: cell-based; conditions: human, HCV Replicon 1b cells
[4] = tested on: HCV GT 3a (strain S52) replicon; test: HCV GT 3a subgenomic replicon luciferase antiviral assay in Huh7.5-3a cells; format: cell-based; conditions: Hepatitis C virus, GT3A, 72 h; Huh7.5-3a, GT 3a (S52), F-Luc, 3 days; read-out: EC50 HCV Replicon 3a
HCV GT 1b (Con1) = test: Drug combination of 11a with daclatasvir in Huh5-2 replicon cells; format: cell-based
[5] = tested on: HCV GT 4a (strain ED43) replicon; test: HCV GT 4a subgenomic replicon luciferase antiviral assay in Huh7.5-4a cells; format: cell-based; conditions: Hepatitis C virus, GT4A, 72 h; Huh7.5-4a, GT 4a (ED43), F-Luc, 3 days; read-out: EC50 HCV Replicon 4a
[6] = tested on: HCV GT-1b RNA (Con1 replicon); test: Viral RNA quantification by RT-qPCR in Huh5-2 replicon cells; format: cell-based; conditions: (+) strand HCV RNA by RT-qPCR, Huh5-2 cells, normalized to YWHAZ
HCV GT 2a = test: Activity against HCV GT 2a (data not shown); format: cell-based
[7] = tested on: HCV GT-1b replicon containing Huh-7 cells; parameters: method as in earlier work; conditions: cited from earlier work
NS5B = conditions: reported NS5B TP-2 inhibitors, Figure 1; cited from earlier work
[8] = Hepatitis C virus, GT1B, Huh-5-2, 72 h

Cc1ccc(OCC(=O)Nc2ccc3c(c2)c(=O)nc(C)n3-c2ccccc2)cc1 [11a, N-(2-Methyl-4-oxo-1-phenyl-1,4-dihydroquinazolin-6-yl)-2-(p-tolyloxy)acetamide]
EC50 [1, 8]: 984 nM | EC50 [1]: 980 ± 60 nM | solubility at 24 h [2]: 2.7 µg/mL (≈ 6.76 µM) | CC50 at 3 days [3]: 157500 ± 30 nM | EC50 [4]: > 10000 nM | melting point: 268 °C | Combinatory effect with daclatasvir (HCV GT 1b (Con1); 11a in combination with DCV, Huh5-2, in words): additive effect | CDI (coefficient of drug interaction) (HCV GT 1b (Con1); 11a with daclatasvir (DCV), Huh5-2): ≈ 1 | CDI (HCV GT 1b (Con1); DCV 30 pM + 11a 0.1 μM, Huh5-2): 0.949 | CDI (HCV GT 1b (Con1); DCV 30 pM + 11a 1 μM, Huh5-2): 0.995 | EC50 [5]: > 10000 nM | EC50 [6]: 1130 nM

Cc1nc(=O)c2cc(NC(=O)COc3ccc(Cl)cc3)ccc2n1-c1ccccc1 [11b, 2-(4-Chlorophenoxy)-N-(2-methyl-4-oxo-1-phenyl-1,4-dihydroquinazolin-6-yl)acetamide]
EC50 [1, 8]: 1380 ± 40 nM | solubility at 24 h [2]: 3.5 µg/mL (≈ 8.34 µM) | CC50 at 3 days [3]: 99010 ± 90 nM | EC50 [4]: 11600 ± 1260 nM | melting point: 254 °C | activity against GT 2a (HCV GT 2a): no activity | EC50 [5]: > 10000 nM

CC1CCC(C(=O)N(c2cc(C#CC(C)(C)C)sc2C(=O)O)C(C)C)CC1 (stereo not drawn) [II]
EC50 [7]: 26 nM | IC50 (NS5B): 86 nM
